Biological target: T1, ChoKα1 (choline kinase α1) (Homo sapiens, UniProt P35790)
T1 construct: gene CHKA; truncated form of ChoKα1 (Δ75–457), N-terminal 6x His-tag
Test: radiometric assay: [methyl-14C]choline to phosphocholine by purified recombinant enzyme, TLC and scintillation counting
Assay type: biochemical

T1 sequence (P35790 75-457): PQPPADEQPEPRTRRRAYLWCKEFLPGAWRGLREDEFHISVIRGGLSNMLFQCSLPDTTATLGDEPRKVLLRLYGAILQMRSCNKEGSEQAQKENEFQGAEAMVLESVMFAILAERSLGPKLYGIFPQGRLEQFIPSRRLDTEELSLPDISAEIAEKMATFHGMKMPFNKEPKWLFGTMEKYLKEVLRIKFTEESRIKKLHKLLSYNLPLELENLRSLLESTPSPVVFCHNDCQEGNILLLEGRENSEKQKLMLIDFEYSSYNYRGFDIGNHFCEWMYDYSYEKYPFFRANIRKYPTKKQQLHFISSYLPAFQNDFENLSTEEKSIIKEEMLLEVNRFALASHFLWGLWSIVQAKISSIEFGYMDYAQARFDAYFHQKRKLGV

Clc1ccc2c(N3CCCC3)cc[n+](Cc3ccc(SCCSc4ccc(C[n+]5ccc(N6CCCC6)c6ccc(Cl)cc65)cc4)cc3)c2c1 [PL48]
IC50: 658 ± 67 nM

— PMC8876215, “Anticancer Activity of the Choline Kinase Inhibitor PL48 Is Due to Selective Disruption of Choline Metabolism and Transport Systems in Cancer Cell Lines” (Pharmaceutics, 2022)
